Reference: patent US20230416232A1, “PYRIMIDINE COMPOUNDS, COMPOSITIONS, AND MEDICINAL APPLICATIONS THEREOF” (Blueprint Medicines Corporation, priority 2020, published 2023)
Counter-ions that a name gives are not always drawn.

Legend:
Format in all cases: cell-based
[1] = target: EGFR (A767_dupASV) expressing Ba/F3 stable cell line (Homo sapiens, UniProt P00533, DUP767-769, cells depend on it); experiment: Cellular proliferation (Alamar Blue) assay, EGFR (A767_dupASV) Ba/F3; conditions: 72 hr, read-out: A767 IC50
Procedure: (§1) Cell line details: • 1. EGFR(D770_N771insSVD) expressing Ba/F3 stable cell line • 2. EGFR (A767_dupASV) expressing Ba/F3 stable cell line • 3. A431 cells • 4. EGFR (H773insNPH) expressing Ba/F3 stable cell line • 5. HER2 (A775_G776insYVMA) expressing Ba/F3 stable cell line
(§2) • 1. Seed cells at 5000 for A431 and 15,000 cells for Ba/F3 in 100 μL/well in complete media (for A431: DMEM with 10% FBS and for Ba/F3 cells: RPMI with 10% FBS) in 96-well tissue culture plate. Leave outer wells without cells for background measurements. Incubate at 37 degree Celsius in 5% CO2 humidified incubator for 16-18 hours. • 2. Add 0.025 ml of 5X concentration compound dilution or DMSO control. Final compound concentration range is 10-0.0005 μM prepared in 3-fold serial dilutions. Incubate for 72 hr at 37 degree Celsius in 5% CO2 humidified incubator. • 3. Add 0.0125 ml Alamar Blue™ reagent to each well with multi-channel pipette and tap gently on each side of the plate to mix. Incubate for 3 hours at 37 degree Celsius in 5% CO2 humidified incubator. • 4. […] Data analysis was performed using XLfit 5.5.0.5.

A431 cells = experiment: Cellular proliferation (Alamar Blue) assay, A431 cells; conditions: Homo sapiens, A-431, 72 h, A431 cells; 72 hr; Alamar Blue; read-out: A431 IC50
Procedure: as §2

[2] = target: HER2 (A775_G776insYVMA) expressing Ba/F3 stable cell line (Homo sapiens, UniProt P04626, DUP772-775, cells depend on it); experiment: Cellular proliferation (Alamar Blue) assay, HER2 (A775_G776insYVMA) Ba/F3; conditions: HER2 (A775_G776insYVMA) Ba/F3 cells; 72 hr; Alamar Blue; read-out: YVMA IC50
Procedure: as §1, §2

[3] = target: EGFR(D770_N771insSVD) expressing Ba/F3 stable cell line (Homo sapiens, UniProt P00533, DUP768-770, cells depend on it); experiment: Cellular proliferation (Alamar Blue) assay, EGFR(D770_N771insSVD) Ba/F3; conditions: 72 hr, read-out: D770 IC50
Procedure: as §1, §2

Chain of EGFR(D770_N771insSVD) expressing Ba/F3 stable cell line (P00533 with tags, fused parts or gaps DUP768-770): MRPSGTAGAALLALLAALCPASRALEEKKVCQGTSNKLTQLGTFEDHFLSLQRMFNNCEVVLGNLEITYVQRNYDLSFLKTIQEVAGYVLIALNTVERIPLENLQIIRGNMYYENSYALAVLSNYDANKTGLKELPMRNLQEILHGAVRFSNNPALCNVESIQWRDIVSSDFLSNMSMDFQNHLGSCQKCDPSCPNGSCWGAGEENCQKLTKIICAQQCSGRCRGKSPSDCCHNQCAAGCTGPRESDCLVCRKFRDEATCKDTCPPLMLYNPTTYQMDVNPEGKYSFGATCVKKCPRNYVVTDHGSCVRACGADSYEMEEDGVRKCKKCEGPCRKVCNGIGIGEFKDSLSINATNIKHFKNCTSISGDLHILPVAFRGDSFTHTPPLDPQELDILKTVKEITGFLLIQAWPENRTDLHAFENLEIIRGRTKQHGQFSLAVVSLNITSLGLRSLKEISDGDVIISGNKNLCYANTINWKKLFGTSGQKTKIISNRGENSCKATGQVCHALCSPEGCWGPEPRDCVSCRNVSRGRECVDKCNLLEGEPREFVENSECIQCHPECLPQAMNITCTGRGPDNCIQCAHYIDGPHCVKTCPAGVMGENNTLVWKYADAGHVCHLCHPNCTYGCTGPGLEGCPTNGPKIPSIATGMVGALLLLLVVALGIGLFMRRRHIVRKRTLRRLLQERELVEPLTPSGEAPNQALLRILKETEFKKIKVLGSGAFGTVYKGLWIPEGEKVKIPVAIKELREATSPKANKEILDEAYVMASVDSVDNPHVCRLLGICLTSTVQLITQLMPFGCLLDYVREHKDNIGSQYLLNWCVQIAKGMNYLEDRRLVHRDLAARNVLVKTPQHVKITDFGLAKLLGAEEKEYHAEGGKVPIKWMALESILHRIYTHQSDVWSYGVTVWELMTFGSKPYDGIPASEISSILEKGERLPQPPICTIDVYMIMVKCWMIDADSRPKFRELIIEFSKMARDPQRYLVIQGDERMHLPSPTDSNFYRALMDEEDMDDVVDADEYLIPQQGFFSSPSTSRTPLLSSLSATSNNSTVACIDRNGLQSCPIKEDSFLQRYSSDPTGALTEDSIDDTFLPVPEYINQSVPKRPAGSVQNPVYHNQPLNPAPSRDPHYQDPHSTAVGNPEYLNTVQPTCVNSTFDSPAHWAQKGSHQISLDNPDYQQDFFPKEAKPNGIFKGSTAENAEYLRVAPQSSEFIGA
Chain of HER2 (A775_G776insYVMA) expressing Ba/F3 stable cell line (P04626 with tags, fused parts or gaps DUP772-775): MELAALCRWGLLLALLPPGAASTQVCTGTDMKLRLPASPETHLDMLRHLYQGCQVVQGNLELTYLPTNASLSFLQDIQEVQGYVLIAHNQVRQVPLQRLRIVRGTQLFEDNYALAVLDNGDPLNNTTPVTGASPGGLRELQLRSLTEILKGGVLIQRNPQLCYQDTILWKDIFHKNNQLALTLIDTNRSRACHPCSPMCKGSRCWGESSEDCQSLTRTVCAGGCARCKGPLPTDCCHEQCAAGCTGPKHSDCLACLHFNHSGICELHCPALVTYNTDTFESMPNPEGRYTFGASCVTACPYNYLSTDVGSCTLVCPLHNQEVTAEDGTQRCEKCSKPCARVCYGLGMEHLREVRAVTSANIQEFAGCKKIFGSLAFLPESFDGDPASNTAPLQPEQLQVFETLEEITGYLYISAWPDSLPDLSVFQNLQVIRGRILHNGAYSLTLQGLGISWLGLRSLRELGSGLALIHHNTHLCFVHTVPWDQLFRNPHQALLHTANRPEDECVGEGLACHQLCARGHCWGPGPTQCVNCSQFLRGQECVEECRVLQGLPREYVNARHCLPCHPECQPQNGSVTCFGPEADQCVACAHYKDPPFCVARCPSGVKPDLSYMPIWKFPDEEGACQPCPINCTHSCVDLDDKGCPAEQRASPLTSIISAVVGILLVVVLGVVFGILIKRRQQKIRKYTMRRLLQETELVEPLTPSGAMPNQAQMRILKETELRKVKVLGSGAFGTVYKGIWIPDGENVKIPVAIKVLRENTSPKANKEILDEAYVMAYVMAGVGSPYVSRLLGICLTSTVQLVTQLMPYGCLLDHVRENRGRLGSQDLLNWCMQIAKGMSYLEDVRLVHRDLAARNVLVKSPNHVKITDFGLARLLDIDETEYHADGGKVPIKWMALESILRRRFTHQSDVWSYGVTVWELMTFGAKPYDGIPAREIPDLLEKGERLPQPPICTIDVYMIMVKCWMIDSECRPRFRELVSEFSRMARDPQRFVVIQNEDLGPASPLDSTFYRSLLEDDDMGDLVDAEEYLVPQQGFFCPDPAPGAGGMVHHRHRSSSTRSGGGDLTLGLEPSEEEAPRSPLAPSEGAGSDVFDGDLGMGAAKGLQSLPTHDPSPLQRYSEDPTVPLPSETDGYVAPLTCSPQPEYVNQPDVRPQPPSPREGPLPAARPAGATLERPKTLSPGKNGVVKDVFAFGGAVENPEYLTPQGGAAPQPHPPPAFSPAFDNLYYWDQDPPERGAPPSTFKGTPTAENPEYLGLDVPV
Chain of EGFR (A767_dupASV) expressing Ba/F3 stable cell line (P00533 with tags, fused parts or gaps DUP767-769): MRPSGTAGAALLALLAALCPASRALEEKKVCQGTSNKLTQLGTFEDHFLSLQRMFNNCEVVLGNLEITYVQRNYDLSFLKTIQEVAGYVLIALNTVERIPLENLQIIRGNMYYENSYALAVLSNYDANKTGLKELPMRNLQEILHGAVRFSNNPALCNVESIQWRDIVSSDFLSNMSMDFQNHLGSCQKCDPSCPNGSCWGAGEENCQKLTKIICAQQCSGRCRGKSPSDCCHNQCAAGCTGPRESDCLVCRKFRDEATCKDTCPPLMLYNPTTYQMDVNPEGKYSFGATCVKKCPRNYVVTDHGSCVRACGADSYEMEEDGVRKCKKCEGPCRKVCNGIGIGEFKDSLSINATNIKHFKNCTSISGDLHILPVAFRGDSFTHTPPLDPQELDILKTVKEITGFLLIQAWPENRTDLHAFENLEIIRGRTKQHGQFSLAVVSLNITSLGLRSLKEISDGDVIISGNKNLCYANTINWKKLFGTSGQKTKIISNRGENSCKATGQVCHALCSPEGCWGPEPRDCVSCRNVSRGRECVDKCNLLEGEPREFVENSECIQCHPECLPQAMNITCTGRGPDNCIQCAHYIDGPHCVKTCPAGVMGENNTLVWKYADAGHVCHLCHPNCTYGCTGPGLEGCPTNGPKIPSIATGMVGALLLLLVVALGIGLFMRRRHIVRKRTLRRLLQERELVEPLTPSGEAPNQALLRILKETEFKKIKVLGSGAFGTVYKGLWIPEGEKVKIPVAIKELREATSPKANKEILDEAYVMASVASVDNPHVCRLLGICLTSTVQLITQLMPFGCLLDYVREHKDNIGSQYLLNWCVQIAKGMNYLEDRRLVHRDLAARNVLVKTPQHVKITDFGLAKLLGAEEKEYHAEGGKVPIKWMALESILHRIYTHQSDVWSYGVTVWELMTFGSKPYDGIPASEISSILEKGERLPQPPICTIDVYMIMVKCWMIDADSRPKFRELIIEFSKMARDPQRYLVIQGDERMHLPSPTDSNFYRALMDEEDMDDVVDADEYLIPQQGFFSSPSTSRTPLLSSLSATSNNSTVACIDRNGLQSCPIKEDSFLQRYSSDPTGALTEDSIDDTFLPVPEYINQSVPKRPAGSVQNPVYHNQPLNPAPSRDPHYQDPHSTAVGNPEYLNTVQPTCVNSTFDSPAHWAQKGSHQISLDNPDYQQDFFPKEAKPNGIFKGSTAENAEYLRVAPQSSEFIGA

Row | Structure (SMILES) | GI50 [1] | IC50 (A431 cells) | GI50 [2] | GI50 [3]
1 | C=CC(=O)Nc1ccc(F)c(Nc2nc(Nc3cnn(C)c3)ncc2-c2cc(F)c(C(F)(F)F)c(F)c2)c1 [Compound 20, N-(3-((5-(3,5-difluoro-4-(trifluoromethyl)phenyl)-2-((1-methyl-1H-pyrazol-4-yl)amino)pyrimidin-4-yl)amino)-4-fluorophenyl)acrylamide trifluoroacetate] | 61 nM | 13 nM | 164 nM | –
2 | C=CC(=O)Nc1ccc(F)c(Nc2nc(Nc3cnn(C)c3)ncc2-c2cnc(C(F)(F)F)c(F)c2)c1 [Compound 61, N-(4-fluoro-3-((5-(5-fluoro-6-(trifluoromethyl)pyridin-3-yl)-2-((l-methyl-1H-pyrazol-4-yl)amino)pyrimidin-4-yl)amino)phenyl)acrylamide] | 11 nM | – | 37 nM | –
3 | O=C(O)C(F)(F)F.[2H]C([2H])([2H])n1cc(Nc2ncc(-c3cnc(F)c(F)c3)c(Nc3cc(NC(=O)C=C)ccc3F)n2)cn1 [Compound 101, N-(3-((5-(5,6-difluoropyridin-3-yl)-2-((1-(methyl-d3)-1H-pyrazol-4-yl)amino)pyrimidin-4-yl)amino)-4-fluorophenyl)acrylamide] | – | – | – | 15 nM
4 | C=CC(=O)Nc1ccc(F)c(Nc2nc(Nc3cnn(C)c3)ncc2-c2ccc(F)cc2C(F)(F)F)c1 [Compound 107, N-(4-fluoro-3-((5-(4-fluoro-2-(trifluoromethyl)phenyl)-2-((1-methyl-1H-pyrazol-4-yl)amino)pyrimidin-4-yl)amino)phenyl)acrylamide] | – | 3130 nM | 7340 nM | –
5 | C=CC(=O)Nc1ccc(F)c(Nc2nc(Nc3cn(C)nc3Cl)ncc2-c2ccc(OC)c(OC)c2)c1 [Compound 110, N-(3-((2-((3-chloro-1-methyl-1H-pyrazol-4-yl)amino)-5-(3,4-dimethoxyphenyl)pyrimidin-4-yl)amino)-4-fluorophenyl)acrylamide] | – | 819 nM | 5780 nM | –
6 | C=CC(=O)Nc1ccc(F)c(Nc2nc(Nc3cnn(C)c3)ncc2-c2ccc3c(c2)OCCO3)c1 [Compound 111, N-(3-((5-(2,3-dihydrobenzo[b][1,4]dioxin-6-yl)-2-((1-methyl-1H-pyrazol-4-yl)amino)pyrimidin-4-yl)amino)-4-fluorophenyl)acrylamide] | – | 164 nM | 1080 nM | –
7 | C=CC(=O)Nc1ccc(F)c(Nc2nc(Nc3cnn(C)c3)ncc2-c2ccc(Br)cc2F)c1 [Compound 112, N-(3-((5-(4-bromo-2-fluorophenyl)-2-((1-methyl-1H-pyrazol-4-yl)amino)pyrimidin-4-yl)amino)-4-fluorophenyl)acrylamide] | – | 497 nM | 923 nM | –
8 | C=CC(=O)Nc1ccc(F)c(Nc2nc(Nc3cnn(C)c3)ncc2-c2ccc3c(c2)OC(C)(C)O3)c1 [Compound 114, N-(3-((5-(2,2-dimethylbenzo[d][1,3]dioxol-5-yl)-2-((1-methyl-1H-pyrazol-4-yl)amino)pyrimidin-4-yl)amino)-4-fluorophenyl)acrylamide] | – | 77 nM | 4570 nM | –
9 | C=CC(=O)Nc1ccc(F)c(Nc2nc(Nc3cnn(C)c3)ncc2-c2cc(OC)cc(OC)c2)c1 [Compound 116, N-(3-((5-(3,5-dimethoxyphenyl)-2-((1-methyl-1H-pyrazol-4-yl)amino)pyrimidin-4-yl)amino)-4-fluorophenyl)acrylamide] | – | 3520 nM | > 10000 nM | –
10 | C=CC(=O)Nc1ccc(F)c(Nc2nc(Nc3cnn(C)c3)ncc2-c2ccc(Br)c(C(F)F)c2)c1 [Compound 118, N-(3-((5-(4-bromo-3-(difluoromethyl)phenyl)-2-((1-methyl-1H-pyrazol-4-yl)amino)pyrimidin-4-yl)amino)-4-fluorophenyl)acrylamide] | – | 215 nM | 352 nM | –
11 | C=CC(=O)Nc1ccc(F)c(Nc2nc(Nc3cnn(C)c3)ncc2-c2ccc(Br)c(N(C)C)c2)c1 [Compound 119, N-(3-((5-(4-bromo-3-(dimethylamino)phenyl)-2-((1-methyl-1H-pyrazol-4-yl)amino)pyrimidin-4-yl)amino)-4-fluorophenyl)acrylamide] | – | 1160 nM | 5200 nM | –
12 | C=CC(=O)Nc1ccc(F)c(Nc2nc(Nc3cnn(C)c3)ncc2-c2cc(F)cc(N3CCC3)c2)c1 [Compound 120, N-(3-((5-(3-(azetidin-1-yl)-5-fluorophenyl)-2-((1-methyl-1H-pyrazol-4-yl)amino)pyrimidin-4-yl)amino)-4-fluorophenyl)acrylamide] | – | 9280 nM | > 10000 nM | –
13 | C=CC(=O)Nc1ccc(F)c(Nc2nc(Nc3cnn(C)c3)ncc2-c2cc(F)cc(N3CCCC3)c2)c1 [Compound 121, N-(4-fluoro-3-((5-(3-fluoro-5-(pyrrolidin-1-yl)phenyl)-2-((1-methyl-1H-pyrazol-4-yl)amino)pyrimidin-4-yl)amino)phenyl)acrylamide] | – | > 10000 nM | > 10000 nM | –
14 | C=CC(=O)Nc1ccc(F)c(Nc2nc(Nc3cnn(C)c3)ncc2-c2ccc(OCc3cccc(F)c3)c(Cl)c2)c1 [Compound 122, N-{3-[(5-{3-chloro-4-[(3-fluorophenyl)methoxy]phenyl}-2-[(1-methyl-1H-pyrazol-4-yl)amino]pyrimidin-4-yl)amino]-4-fluorophenyl}prop-2-enamide] | – | 290 nM | 669 nM | –
15 | C=CC(=O)Nc1ccc(F)c(Nc2nc(Nc3cnn(C)c3)ncc2-c2cc(F)cc(OC(C)C)c2)c1 [Compound 129, N-(4-fluoro-3-((5-(3-fluoro-5-isopropoxyphenyl)-2-((1-methyl-1H-pyrazol-4-yl)amino)pyrimidin-4-yl)amino)phenyl)acrylamide] | – | > 10000 nM | > 10000 nM | –
16 | C=CC(=O)Nc1ccc(F)c(Nc2nc(Nc3cnn(C)c3)ncc2-c2cc(F)cc(OCC3CC3)c2)c1 [Compound 130, N-(3-((5-(3-(cyclopropylmethoxy)-5-fluorophenyl)-2-((1-methyl-1H-pyrazol-4-yl)amino)pyrimidin-4-yl)amino)-4-fluorophenyl)acrylamide] | – | > 10000 nM | > 10000 nM | –
17 | C=CC(=O)Nc1ccc(F)c(Nc2nc(Nc3cnn(C)c3)ncc2-c2ccc(Br)c(OC)c2)c1 [Compound 134, N-(3-((5-(4-bromo-3-methoxyphenyl)-2-((1-methyl-1H-pyrazol-4-yl)amino)pyrimidin-4-yl)amino)-4-fluorophenyl)acrylamide] | – | 238 nM | 453 nM | –
18 | Cn1cc(Nc2ncc(-c3ccc(Br)c(F)c3)c(Nc3cc(NC(=O)/C=C/CN4CCCCC4)ccc3F)n2)cn1 [Compound 142, (E)-N-(3-((5-(4-bromo-3-fluorophenyl)-2-((1-methyl-1H-pyrazol-4-yl)amino)pyrimidin-4-yl)amino)-4-fluorophenyl)-4-(piperidin-1-yl)but-2-enamide] | – | 301 nM | 738 nM | –
19 | COc1cc(F)cc(-c2cnc(Nc3cnn(C)c3)nc2Nc2cc(NC(=O)/C=C/CN(C)C)ccc2F)c1 [Compound 144, (E)-4-(dimethylamino)-N-(4-fluoro-3-((5-(3-fluoro-5-methoxyphenyl)-2-((1-methyl-1H-pyrazol-4-yl)amino)pyrimidin-4-yl)amino)phenyl)but-2-enamide] | – | 4880 nM | 970 nM | –
20 | [2H]c1ccc(NC(=O)C=C)cc1Nc1nc(Nc2cnn(C)c2)ncc1-c1cc(F)cc(OC)c1 [Compound 145, N-(3-((5-(3-fluoro-5-methoxyphenyl)-2-((1-methyl-1H-pyrazol-4-yl)amino)pyrimidin-4-yl)amino)phenyl-4-d)acrylamide] | – | 388 nM | 264 nM | –
21 | C=CC(=O)Nc1cccc(Nc2nc(Nc3cnn(C)c3)ncc2-c2cc(F)c(F)c(F)c2)c1 [Compound 148, N-(3-((2-((1-methyl-1H-pyrazol-4-yl)amino)-5-(3,4,5-trifluorophenyl)pyrimidin-4-yl)amino)phenyl)acrylamide] | – | 29 nM | 45 nM | 10 nM
22 | C=CC(=O)Nc1ccc(F)c(Nc2nc(Nc3cnn(C)c3)ncc2-c2cc(F)c(N(C)C)c(F)c2)c1 [Compound 156, N-(3-((5-(4-(dimethylamino)-3,5-difluorophenyl)-2-((1-methyl-1H-pyrazol-4-yl)amino)pyrimidin-4-yl)amino)-4-fluorophenyl)acrylamide] | – | 19 nM | 309 nM | –
23 | [2H]C([2H])([2H])n1cc(Nc2ncc(-c3ccc(Br)c(F)c3)c(Nc3cc(NC(=O)C=C)ccc3F)n2)cn1 [Compound 169, N-(3-((5-(4-bromo-3-fluorophenyl)-2-((1-(methyl-d3)-1H-pyrazol-4-yl)amino)pyrimidin-4-yl)amino)-4-fluorophenyl)acrylamide] | – | 11 nM | 147 nM | 36 nM
